# According to ChEMBL document CHEMBL1145498, “A systematic interaction map of validated kinase inhibitors with Ser/Thr kinases” (Proc Natl Acad Sci U S A, 2007):
# Molecular target: Dual specificity mitogen-activated protein kinase kinase 2 (Homo sapiens, UniProt P36507)
# Sequence (P36507 whole entry): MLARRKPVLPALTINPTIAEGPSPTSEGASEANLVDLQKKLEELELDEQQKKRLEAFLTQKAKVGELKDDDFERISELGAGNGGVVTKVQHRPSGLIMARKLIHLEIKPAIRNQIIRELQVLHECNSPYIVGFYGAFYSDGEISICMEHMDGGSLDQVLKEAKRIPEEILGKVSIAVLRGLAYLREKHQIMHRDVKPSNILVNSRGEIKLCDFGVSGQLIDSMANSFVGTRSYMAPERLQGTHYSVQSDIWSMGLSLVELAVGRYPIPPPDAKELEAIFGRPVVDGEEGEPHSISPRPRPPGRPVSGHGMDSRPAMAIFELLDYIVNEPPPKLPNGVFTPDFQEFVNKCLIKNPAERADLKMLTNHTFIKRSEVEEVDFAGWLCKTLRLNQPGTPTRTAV
row,SMILES,ΔTm
1,CN1CCc2[nH]c(=S)c(C#N)c(-c3cccs3)c2C1,-0.2 °C
2,CCCCc1c(-c2ccc(O)cc2)[nH]c2nccnc12 [ALOISINE A],2.1 °C
3,COc1cc(C[C@H]2C(=O)OC[C@@H]2Cc2ccc(OC)c(OC)c2)ccc1O [ARCTIGENIN],0 °C

# Molecular target: Calcium/calmodulin-dependent protein kinase type II subunit delta (Homo sapiens) (UniProt Q13557)
# Sequence (Q13557 whole entry): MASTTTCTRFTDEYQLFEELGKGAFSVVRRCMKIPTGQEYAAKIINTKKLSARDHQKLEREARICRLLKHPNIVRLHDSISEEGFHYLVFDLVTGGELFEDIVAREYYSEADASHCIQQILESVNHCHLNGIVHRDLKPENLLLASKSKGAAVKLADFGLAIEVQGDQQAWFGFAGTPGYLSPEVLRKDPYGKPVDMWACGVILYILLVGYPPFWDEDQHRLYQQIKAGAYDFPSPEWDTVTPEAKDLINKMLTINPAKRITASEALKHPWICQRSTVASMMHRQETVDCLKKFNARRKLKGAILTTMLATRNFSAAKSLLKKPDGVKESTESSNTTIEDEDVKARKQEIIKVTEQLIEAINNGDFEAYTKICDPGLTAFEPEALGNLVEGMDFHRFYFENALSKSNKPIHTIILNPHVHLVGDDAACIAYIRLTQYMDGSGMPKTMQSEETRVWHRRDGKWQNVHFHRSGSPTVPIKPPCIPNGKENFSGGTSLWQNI
row,SMILES,ΔTm
1,CN1CCc2[nH]c(=S)c(C#N)c(-c3cccs3)c2C1,-0.8 °C
2,CCCCc1c(-c2ccc(O)cc2)[nH]c2nccnc12 [ALOISINE A],1.8 °C
3,COc1cc(C[C@H]2C(=O)OC[C@@H]2Cc2ccc(OC)c(OC)c2)ccc1O [ARCTIGENIN],0.2 °C

# Molecular target: Serine/threonine-protein kinase PLK1 (Homo sapiens) (UniProt P53350)
row,SMILES,ΔTm
1,CN1CCc2[nH]c(=S)c(C#N)c(-c3cccs3)c2C1,2.4 °C
2,CCCCc1c(-c2ccc(O)cc2)[nH]c2nccnc12 [ALOISINE A],2.8 °C
3,COc1cc(C[C@H]2C(=O)OC[C@@H]2Cc2ccc(OC)c(OC)c2)ccc1O [ARCTIGENIN],0.1 °C

# Molecular target: T1, Myotonin-protein kinase (Homo sapiens) (UniProt Q09013)
# T1 sequence (whole entry): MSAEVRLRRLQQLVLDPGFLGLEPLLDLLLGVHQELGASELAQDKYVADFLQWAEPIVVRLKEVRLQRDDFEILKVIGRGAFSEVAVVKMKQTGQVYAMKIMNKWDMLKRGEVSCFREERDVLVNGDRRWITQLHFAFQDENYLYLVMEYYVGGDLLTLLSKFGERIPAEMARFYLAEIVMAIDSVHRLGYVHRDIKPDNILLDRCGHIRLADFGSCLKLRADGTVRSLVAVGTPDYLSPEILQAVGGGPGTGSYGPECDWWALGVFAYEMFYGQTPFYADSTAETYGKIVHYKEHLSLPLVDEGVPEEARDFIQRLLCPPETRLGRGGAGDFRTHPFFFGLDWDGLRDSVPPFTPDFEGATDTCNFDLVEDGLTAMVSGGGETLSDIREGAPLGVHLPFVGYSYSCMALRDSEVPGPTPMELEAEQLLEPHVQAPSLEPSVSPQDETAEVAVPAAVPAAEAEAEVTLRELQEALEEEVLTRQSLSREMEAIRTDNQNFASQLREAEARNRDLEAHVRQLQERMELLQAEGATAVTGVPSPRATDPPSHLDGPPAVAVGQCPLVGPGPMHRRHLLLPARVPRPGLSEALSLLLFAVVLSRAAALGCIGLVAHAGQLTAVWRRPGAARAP
row,SMILES,ΔTm
1,CN1CCc2[nH]c(=S)c(C#N)c(-c3cccs3)c2C1,7.8 °C
2,CCCCc1c(-c2ccc(O)cc2)[nH]c2nccnc12 [ALOISINE A],6.1 °C
3,COc1cc(C[C@H]2C(=O)OC[C@@H]2Cc2ccc(OC)c(OC)c2)ccc1O [ARCTIGENIN],1.4 °C

# Molecular target: Calcium/calmodulin-dependent protein kinase type 1G (Homo sapiens) (UniProt Q96NX5)
# Sequence (Q96NX5 whole entry): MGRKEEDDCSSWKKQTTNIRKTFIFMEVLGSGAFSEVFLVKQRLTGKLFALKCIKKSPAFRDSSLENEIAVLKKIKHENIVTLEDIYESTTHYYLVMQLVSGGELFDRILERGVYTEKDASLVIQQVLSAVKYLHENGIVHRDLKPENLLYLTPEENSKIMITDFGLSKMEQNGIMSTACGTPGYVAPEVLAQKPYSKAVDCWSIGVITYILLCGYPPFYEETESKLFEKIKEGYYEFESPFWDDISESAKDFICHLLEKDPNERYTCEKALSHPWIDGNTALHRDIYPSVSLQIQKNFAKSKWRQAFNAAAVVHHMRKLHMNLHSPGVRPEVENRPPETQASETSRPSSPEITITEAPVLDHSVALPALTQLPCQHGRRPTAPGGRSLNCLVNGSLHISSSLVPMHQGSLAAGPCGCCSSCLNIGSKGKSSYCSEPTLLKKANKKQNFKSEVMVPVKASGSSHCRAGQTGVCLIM
row,SMILES,ΔTm
1,CN1CCc2[nH]c(=S)c(C#N)c(-c3cccs3)c2C1,2.5 °C
2,CCCCc1c(-c2ccc(O)cc2)[nH]c2nccnc12 [ALOISINE A],0.6 °C
3,COc1cc(C[C@H]2C(=O)OC[C@@H]2Cc2ccc(OC)c(OC)c2)ccc1O [ARCTIGENIN],-0.3 °C

# Molecular target: Calcium/calmodulin-dependent protein kinase type II subunit gamma (Homo sapiens) (UniProt Q13555)
row,SMILES,ΔTm
1,CN1CCc2[nH]c(=S)c(C#N)c(-c3cccs3)c2C1,1 °C
2,CCCCc1c(-c2ccc(O)cc2)[nH]c2nccnc12 [ALOISINE A],1.1 °C
3,COc1cc(C[C@H]2C(=O)OC[C@@H]2Cc2ccc(OC)c(OC)c2)ccc1O [ARCTIGENIN],0.3 °C

# Molecular target: T2, Dual specificity mitogen-activated protein kinase kinase 6 (Homo sapiens) (UniProt P52564)
# T2 sequence (whole entry): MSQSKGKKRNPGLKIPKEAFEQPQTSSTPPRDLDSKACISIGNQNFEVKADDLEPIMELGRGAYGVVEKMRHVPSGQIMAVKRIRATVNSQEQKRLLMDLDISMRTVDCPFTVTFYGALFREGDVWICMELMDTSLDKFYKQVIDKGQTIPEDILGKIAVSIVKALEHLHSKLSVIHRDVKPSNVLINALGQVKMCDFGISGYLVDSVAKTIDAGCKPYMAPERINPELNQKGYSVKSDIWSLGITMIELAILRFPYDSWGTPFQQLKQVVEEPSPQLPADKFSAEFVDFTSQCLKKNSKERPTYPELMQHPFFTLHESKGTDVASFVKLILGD
row,SMILES,ΔTm
1,CN1CCc2[nH]c(=S)c(C#N)c(-c3cccs3)c2C1,-0.2 °C
2,CCCCc1c(-c2ccc(O)cc2)[nH]c2nccnc12 [ALOISINE A],0.7 °C
3,COc1cc(C[C@H]2C(=O)OC[C@@H]2Cc2ccc(OC)c(OC)c2)ccc1O [ARCTIGENIN],0.3 °C

# Molecular target: Dual specificity protein kinase CLK3 (Homo sapiens) (UniProt P49761)
row,SMILES,ΔTm
1,CN1CCc2[nH]c(=S)c(C#N)c(-c3cccs3)c2C1,-0.2 °C
2,CCCCc1c(-c2ccc(O)cc2)[nH]c2nccnc12 [ALOISINE A],1.5 °C
3,COc1cc(C[C@H]2C(=O)OC[C@@H]2Cc2ccc(OC)c(OC)c2)ccc1O [ARCTIGENIN],0 °C

# Molecular target: Dual specificity protein kinase CLK2 (Homo sapiens) (UniProt P49760)
# Sequence (P49760 whole entry, looked up): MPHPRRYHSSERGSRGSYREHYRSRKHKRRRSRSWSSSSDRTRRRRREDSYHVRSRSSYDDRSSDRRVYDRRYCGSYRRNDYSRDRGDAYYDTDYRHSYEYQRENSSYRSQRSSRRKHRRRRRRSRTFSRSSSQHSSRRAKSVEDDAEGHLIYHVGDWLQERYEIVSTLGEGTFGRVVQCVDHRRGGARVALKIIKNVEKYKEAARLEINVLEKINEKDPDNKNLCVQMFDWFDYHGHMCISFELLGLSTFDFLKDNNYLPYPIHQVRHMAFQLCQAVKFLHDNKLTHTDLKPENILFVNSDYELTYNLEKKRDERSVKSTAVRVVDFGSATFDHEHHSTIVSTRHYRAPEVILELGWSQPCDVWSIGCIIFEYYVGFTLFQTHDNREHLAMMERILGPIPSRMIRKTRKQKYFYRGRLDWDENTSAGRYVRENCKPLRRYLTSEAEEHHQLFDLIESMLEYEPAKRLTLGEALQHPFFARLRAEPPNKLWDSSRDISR
row,SMILES,ΔTm
1,CN1CCc2[nH]c(=S)c(C#N)c(-c3cccs3)c2C1,6.2 °C
2,CCCCc1c(-c2ccc(O)cc2)[nH]c2nccnc12 [ALOISINE A],1.9 °C
3,COc1cc(C[C@H]2C(=O)OC[C@@H]2Cc2ccc(OC)c(OC)c2)ccc1O [ARCTIGENIN],-0.1 °C

# Molecular target: Calcium/calmodulin-dependent protein kinase type II subunit alpha (Homo sapiens) (UniProt Q9UQM7)
# Sequence (Q9UQM7 whole entry): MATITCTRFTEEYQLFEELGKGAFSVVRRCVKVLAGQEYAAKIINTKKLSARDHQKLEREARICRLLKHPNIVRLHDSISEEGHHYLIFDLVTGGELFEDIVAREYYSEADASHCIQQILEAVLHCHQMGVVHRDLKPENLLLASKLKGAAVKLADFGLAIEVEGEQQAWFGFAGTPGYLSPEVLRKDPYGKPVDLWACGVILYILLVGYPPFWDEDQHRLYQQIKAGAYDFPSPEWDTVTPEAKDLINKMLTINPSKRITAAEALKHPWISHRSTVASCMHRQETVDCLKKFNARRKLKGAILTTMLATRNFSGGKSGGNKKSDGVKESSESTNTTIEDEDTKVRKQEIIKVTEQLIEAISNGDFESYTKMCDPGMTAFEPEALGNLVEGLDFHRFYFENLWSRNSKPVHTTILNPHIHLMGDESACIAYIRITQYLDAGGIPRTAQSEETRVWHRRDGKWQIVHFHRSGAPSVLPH
row,SMILES,ΔTm
1,CN1CCc2[nH]c(=S)c(C#N)c(-c3cccs3)c2C1,0.8 °C
2,CCCCc1c(-c2ccc(O)cc2)[nH]c2nccnc12 [ALOISINE A],0.1 °C
3,COc1cc(C[C@H]2C(=O)OC[C@@H]2Cc2ccc(OC)c(OC)c2)ccc1O [ARCTIGENIN],0.1 °C

# Molecular target: Mitogen-activated protein kinase 6 (Homo sapiens) (UniProt Q16659)
# Sequence (Q16659 whole entry): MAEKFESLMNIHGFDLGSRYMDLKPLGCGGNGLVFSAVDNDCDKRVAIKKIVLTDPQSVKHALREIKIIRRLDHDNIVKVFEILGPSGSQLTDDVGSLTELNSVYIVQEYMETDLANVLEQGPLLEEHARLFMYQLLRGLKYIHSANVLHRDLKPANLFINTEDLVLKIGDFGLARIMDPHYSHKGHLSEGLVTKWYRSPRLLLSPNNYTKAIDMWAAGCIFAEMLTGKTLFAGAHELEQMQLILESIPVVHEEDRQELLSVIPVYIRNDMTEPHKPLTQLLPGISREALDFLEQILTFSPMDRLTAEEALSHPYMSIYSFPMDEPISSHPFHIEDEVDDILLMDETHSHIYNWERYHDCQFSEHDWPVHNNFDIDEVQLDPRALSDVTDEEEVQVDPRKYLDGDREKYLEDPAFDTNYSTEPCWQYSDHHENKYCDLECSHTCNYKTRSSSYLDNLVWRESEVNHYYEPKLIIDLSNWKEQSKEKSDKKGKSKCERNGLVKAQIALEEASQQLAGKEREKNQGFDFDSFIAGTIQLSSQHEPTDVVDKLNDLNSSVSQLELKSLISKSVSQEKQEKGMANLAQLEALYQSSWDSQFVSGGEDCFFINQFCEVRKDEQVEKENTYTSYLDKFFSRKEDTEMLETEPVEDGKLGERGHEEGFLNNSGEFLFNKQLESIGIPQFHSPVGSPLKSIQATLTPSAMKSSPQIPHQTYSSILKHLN
row,SMILES,ΔTm
1,CN1CCc2[nH]c(=S)c(C#N)c(-c3cccs3)c2C1,1.2 °C
2,CCCCc1c(-c2ccc(O)cc2)[nH]c2nccnc12 [ALOISINE A],3 °C
3,COc1cc(C[C@H]2C(=O)OC[C@@H]2Cc2ccc(OC)c(OC)c2)ccc1O [ARCTIGENIN],0.2 °C

# Molecular target: Casein kinase I isoform gamma-1 (Homo sapiens) (UniProt Q9HCP0)
# Sequence (Q9HCP0 whole entry, looked up, canonical isoform): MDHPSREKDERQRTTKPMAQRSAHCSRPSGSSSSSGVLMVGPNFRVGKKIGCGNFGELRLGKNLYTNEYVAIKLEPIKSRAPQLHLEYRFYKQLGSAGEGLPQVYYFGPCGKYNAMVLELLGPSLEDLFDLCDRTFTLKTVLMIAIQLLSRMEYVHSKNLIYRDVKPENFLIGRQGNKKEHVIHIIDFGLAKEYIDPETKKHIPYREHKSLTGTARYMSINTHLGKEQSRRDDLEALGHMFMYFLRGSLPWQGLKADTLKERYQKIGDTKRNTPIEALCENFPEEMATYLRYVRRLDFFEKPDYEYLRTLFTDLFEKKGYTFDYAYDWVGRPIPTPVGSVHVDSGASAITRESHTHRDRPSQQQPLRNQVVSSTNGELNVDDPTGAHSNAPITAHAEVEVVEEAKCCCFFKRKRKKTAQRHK
row,SMILES,ΔTm
1,CN1CCc2[nH]c(=S)c(C#N)c(-c3cccs3)c2C1,0.8 °C
2,CCCCc1c(-c2ccc(O)cc2)[nH]c2nccnc12 [ALOISINE A],3 °C
3,COc1cc(C[C@H]2C(=O)OC[C@@H]2Cc2ccc(OC)c(OC)c2)ccc1O [ARCTIGENIN],0 °C

# Molecular target: TRAF2 and NCK-interacting protein kinase (Homo sapiens) (UniProt Q9UKE5)
row,SMILES,ΔTm
1,CCCCc1c(-c2ccc(O)cc2)[nH]c2nccnc12 [ALOISINE A],0 °C
2,COc1cc(C[C@H]2C(=O)OC[C@@H]2Cc2ccc(OC)c(OC)c2)ccc1O [ARCTIGENIN],-0.2 °C

# Molecular target: Calcium/calmodulin-dependent protein kinase type II subunit beta (Homo sapiens) (UniProt Q13554)
# Sequence (Q13554 whole entry): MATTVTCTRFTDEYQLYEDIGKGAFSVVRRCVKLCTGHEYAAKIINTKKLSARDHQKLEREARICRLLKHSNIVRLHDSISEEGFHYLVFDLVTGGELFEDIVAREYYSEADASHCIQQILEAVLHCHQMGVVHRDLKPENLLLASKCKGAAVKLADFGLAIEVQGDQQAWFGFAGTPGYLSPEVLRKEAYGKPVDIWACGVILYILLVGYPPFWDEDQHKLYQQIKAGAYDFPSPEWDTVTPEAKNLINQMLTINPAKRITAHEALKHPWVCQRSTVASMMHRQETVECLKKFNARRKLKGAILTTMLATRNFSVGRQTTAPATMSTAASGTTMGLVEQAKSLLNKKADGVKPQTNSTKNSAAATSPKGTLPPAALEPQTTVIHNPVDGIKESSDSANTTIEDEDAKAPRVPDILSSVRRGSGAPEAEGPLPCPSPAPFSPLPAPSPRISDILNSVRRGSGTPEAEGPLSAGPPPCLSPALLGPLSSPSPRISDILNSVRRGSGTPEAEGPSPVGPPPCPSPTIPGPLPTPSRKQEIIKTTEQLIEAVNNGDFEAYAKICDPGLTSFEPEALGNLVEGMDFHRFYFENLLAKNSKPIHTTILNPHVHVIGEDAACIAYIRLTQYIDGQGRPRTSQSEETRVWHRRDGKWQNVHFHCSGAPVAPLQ
row,SMILES,ΔTm
1,CN1CCc2[nH]c(=S)c(C#N)c(-c3cccs3)c2C1,-0.2 °C
2,CCCCc1c(-c2ccc(O)cc2)[nH]c2nccnc12 [ALOISINE A],0.5 °C
3,COc1cc(C[C@H]2C(=O)OC[C@@H]2Cc2ccc(OC)c(OC)c2)ccc1O [ARCTIGENIN],0.6 °C

# Molecular target: Serine/threonine-protein kinase OSR1 (Homo sapiens) (UniProt O95747)
row,SMILES,ΔTm
1,CN1CCc2[nH]c(=S)c(C#N)c(-c3cccs3)c2C1,0.8 °C
2,CCCCc1c(-c2ccc(O)cc2)[nH]c2nccnc12 [ALOISINE A],1.6 °C
3,COc1cc(C[C@H]2C(=O)OC[C@@H]2Cc2ccc(OC)c(OC)c2)ccc1O [ARCTIGENIN],-0.1 °C

# Molecular target: Death-associated protein kinase 3 (Homo sapiens) (UniProt O43293)
# Sequence (O43293 whole entry, looked up): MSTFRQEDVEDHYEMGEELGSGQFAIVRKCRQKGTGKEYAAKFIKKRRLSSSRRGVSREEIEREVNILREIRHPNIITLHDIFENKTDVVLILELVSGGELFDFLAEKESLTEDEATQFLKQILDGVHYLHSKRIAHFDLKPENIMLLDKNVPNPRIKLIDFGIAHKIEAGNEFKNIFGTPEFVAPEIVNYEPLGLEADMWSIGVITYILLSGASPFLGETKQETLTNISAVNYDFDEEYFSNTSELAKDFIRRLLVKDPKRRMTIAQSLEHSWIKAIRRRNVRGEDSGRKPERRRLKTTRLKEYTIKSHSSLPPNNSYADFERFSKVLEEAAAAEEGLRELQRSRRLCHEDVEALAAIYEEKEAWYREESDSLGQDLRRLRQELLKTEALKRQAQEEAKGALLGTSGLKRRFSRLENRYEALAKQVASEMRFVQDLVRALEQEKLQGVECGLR
row,SMILES,ΔTm
1,CN1CCc2[nH]c(=S)c(C#N)c(-c3cccs3)c2C1,0.3 °C
2,CCCCc1c(-c2ccc(O)cc2)[nH]c2nccnc12 [ALOISINE A],2.3 °C
3,COc1cc(C[C@H]2C(=O)OC[C@@H]2Cc2ccc(OC)c(OC)c2)ccc1O [ARCTIGENIN],-0.3 °C

# Molecular target: T3, Serine/threonine-protein kinase VRK1 (Homo sapiens) (UniProt Q99986)
# T3 sequence (whole entry): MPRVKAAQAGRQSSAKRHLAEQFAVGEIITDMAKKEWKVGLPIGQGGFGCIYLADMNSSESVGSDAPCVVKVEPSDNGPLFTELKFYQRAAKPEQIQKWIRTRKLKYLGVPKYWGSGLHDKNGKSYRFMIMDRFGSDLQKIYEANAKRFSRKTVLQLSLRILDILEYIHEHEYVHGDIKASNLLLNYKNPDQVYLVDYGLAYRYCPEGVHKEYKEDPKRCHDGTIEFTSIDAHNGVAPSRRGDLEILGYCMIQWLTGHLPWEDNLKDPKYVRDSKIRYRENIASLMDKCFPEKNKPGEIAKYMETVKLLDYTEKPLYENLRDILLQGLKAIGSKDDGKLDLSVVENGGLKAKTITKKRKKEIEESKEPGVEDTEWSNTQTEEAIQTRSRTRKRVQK
row,SMILES,ΔTm
1,CCCCc1c(-c2ccc(O)cc2)[nH]c2nccnc12 [ALOISINE A],-0.2 °C
2,COc1cc(C[C@H]2C(=O)OC[C@@H]2Cc2ccc(OC)c(OC)c2)ccc1O [ARCTIGENIN],0.7 °C

# Molecular target: Mitogen-activated protein kinase 3 (Homo sapiens, UniProt P27361)
# Sequence (P27361 whole entry): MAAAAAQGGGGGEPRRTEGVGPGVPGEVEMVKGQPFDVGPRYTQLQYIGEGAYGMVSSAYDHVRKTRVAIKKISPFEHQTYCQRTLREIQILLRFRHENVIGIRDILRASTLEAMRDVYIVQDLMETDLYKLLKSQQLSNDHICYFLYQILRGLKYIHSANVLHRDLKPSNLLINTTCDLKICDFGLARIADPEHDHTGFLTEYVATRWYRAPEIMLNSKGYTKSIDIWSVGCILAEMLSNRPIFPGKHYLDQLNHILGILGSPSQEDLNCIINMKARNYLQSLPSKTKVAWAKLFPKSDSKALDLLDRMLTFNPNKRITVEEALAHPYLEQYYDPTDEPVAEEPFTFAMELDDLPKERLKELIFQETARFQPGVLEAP
row,SMILES,ΔTm
1,CN1CCc2[nH]c(=S)c(C#N)c(-c3cccs3)c2C1,0.6 °C
2,CCCCc1c(-c2ccc(O)cc2)[nH]c2nccnc12 [ALOISINE A],0.5 °C
3,COc1cc(C[C@H]2C(=O)OC[C@@H]2Cc2ccc(OC)c(OC)c2)ccc1O [ARCTIGENIN],-0.4 °C
